Each block holds one compound with its values, some of them ahead of it. Activity calls are given as the source filed them. The rule behind the calls is not given here.
Tests used:
[1] = biological target: T1, Peroxisome proliferator-activated receptor gamma (Homo sapiens) (UniProt P37231); experiment: Activation of PPAR-gamma (unknown origin) transfected in human U2OS cells assessed as increase in transcriptional activity at 10^-6 M after 24 hrs by luciferase reporter gene assay; format: cell-based
T1 sequence (whole entry): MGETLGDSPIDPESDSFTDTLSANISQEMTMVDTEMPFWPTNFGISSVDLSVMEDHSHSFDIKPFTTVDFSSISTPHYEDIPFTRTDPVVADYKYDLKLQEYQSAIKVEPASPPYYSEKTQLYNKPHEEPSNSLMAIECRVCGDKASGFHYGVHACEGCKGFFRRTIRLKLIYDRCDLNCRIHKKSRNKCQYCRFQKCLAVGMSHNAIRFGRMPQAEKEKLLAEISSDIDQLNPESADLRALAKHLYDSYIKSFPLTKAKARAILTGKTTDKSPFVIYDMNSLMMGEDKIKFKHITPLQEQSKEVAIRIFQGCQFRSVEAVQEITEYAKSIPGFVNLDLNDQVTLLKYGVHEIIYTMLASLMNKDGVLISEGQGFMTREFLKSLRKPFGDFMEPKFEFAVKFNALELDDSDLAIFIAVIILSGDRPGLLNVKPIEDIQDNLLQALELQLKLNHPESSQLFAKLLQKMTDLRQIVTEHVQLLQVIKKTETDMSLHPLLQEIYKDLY

[2] = species: Homo sapiens; experiment: Selectivity for PPAR-gamma (unknown origin) over PPAR-alpha (unknown origin)
[3] = MRT (0 to t) in ICR mouse at 50 mg/kg, po; format: ADME, organism-based; set-up: dose 50 mg/kg, route oral; settings: in vivo
[4] = AUC (0 to t) in ICR mouse at 50 mg/kg, po; format: ADME, organism-based; set-up: dose 50 mg/kg, route oral; settings: plasma
[5] = Tmax in ICR mouse at 50 mg/kg, po; format: ADME, organism-based; set-up: dose 50 mg/kg, route oral; settings: in vivo
[6] = Cmax in ICR mouse at 50 mg/kg, po; format: ADME, organism-based; set-up: dose 50 mg/kg, route oral; settings: in vivo
[7] = system: Mus musculus; experiment: Hypoglycemic activity in ICR mouse assessed as reduction of blood glucose AUC (0 to 120 mins) at 50 mg/kg, po qd administered for 3 days followed by glucose challenge for 40 mins on day 3 post last dose by OGTT relative to control; format: functional; set-up: scale not given: the % may be the effect or the level left
[8] = system: Mus musculus; experiment: Hypoglycemic activity in ICR mouse assessed as decrease in blood glucose level at 50 mg/kg, po after 4 hrs by OGTT relative to control; format: functional
[9] = system: Mus musculus; experiment: Hypoglycemic activity in ICR mouse assessed as decrease in blood glucose level at 50 mg/kg, po after 2 hrs by OGTT relative to control; format: functional
[10] = biological target: T1, Peroxisome proliferator-activated receptor gamma (Homo sapiens); experiment: Activation of PPAR-gamma (unknown origin) transfected in human U2OS cells assessed as increase in transcriptional activity at 10^-6 M after 24 hrs by luciferase reporter gene assay relative to rosiglitazone; format: cell-based
[11] = system: Mus musculus; experiment: Hypoglycemic activity in ICR mouse assessed as decrease in blood glucose level at 50 mg/kg, po after 6 hrs by OGTT relative to control; format: functional; set-up: scale not given: the % may be the effect or the level left

MRT last [3]: 67.8 min
AUC(0-t) [4]: 98 µg·h/mL
Tmax [5]: 30 min
Cmax [6]: 77.8 µg/mL
Activity [10]: > 38.8%
SMILES: CCCCCN(C(=O)Nc1nccs1)c1ccc(OC(C)(C)C(=O)O)cc1
Activity [7]: 34.6%
Activity [8]: Active
Activity [9]: Active

Activity [1]: Active
SMILES: CC(C)CCN(C(=O)Nc1nc2ccccc2s1)c1ccc(OC(C)(C)C(=O)O)cc1

Activity [10]: > 38.8%
SMILES: CCCCCN(C(=O)Nc1nc2ccc(C)cc2s1)c1ccc(OC(C)(C)C(=O)O)cc1
Activity [11]: 20%
Activity [8]: 22.6%

Activity [1]: Active
SMILES: CCCN(C(=O)Nc1nc2ccc(C)cc2s1)c1ccc(OC(C)(C)C(=O)O)cc1

Activity [10]: > 38.8%
SMILES: CCCCCN(C(=O)Nc1nccs1)c1ccc(OC(C)(C)C(=O)OCC)cc1
Activity [7]: 10%

Continued, compound first:

SMILES: CCOC(=O)C(C)(C)Oc1ccc(N(CC=C(C)C)C(=O)Nc2nccs2)cc1
Activity [1]: Active

SMILES: CC(C)(Oc1ccc(CCN(CC2CCCCC2)C(=O)Nc2ccc(F)cc2F)cc1)C(=O)O
Selectivity ratio [2]: 10

SMILES: C=CCN(C(=O)Nc1nccs1)c1ccc(OC(C)(C)C(=O)OCC)cc1
Activity [10]: > 38.8%

SMILES: CC(C)Oc1cc(OCCc2ccsc2)cc(C(=O)Nc2ccc(C(=O)O)cn2)c1
Activity [11]: 24.4%
Activity [8]: 41.8%
Activity [9]: 29.7%

SMILES: CCOC(=O)C(C)(C)Oc1ccc(N(Cc2ccco2)C(=O)Nc2nccs2)cc1
Activity [1]: Active

SMILES: CC(C)(Oc1ccc(N(CC2CCCCC2)C(=O)Nc2nc3ccccc3s2)cc1)C(=O)O
Activity [10]: > 38.8%

SMILES: CC(C)(Oc1ccc(N(Cc2cccc(F)c2)C(=O)Nc2nc3ccccc3s2)cc1)C(=O)O
Activity [1]: Active
